One assay has as its system CtpB. In words: Degradation of in vitro translated 4FAproc constructs with distinct C termini by CtpB. It counts as biochemical, Bacillus subtilis. The conditions noted are these: autoradiography. The procedure: 4FAproc with alternative C-termini was produced using the promega TNT Quick Coupled Transcription/Translation System, following manufactures instructions. Briefly, 40 μl of TNT Master Mix were added to 0.5 μg of template plasmid DNA and 20 μCi of ^35S-methionine (Perkinelmer). The coupled transcription-translation reaction was carried out upon incubation at 30°C for 2 hr. Relative product amounts were normalized based on ^35S-autoradiography following SDS-PAGE analysis.
To measure the proteolytic activities of the SpoIV signaling proteases, recombinant, purified proteases (CtpB, 4B or both, 3 μM) were mixed with respective 4FA model substrates (15 μM) and incubated for various times at 25°C. Reactions were stopped by adding SDS loading buffer. Subsequently, samples were incubated for 5 min at 95°C and analyzed by SDS-PAGE and Coomassie staining. […] Reaction aliquots were stopped and analyzed as described. To compare the cleavage efficiency of various CtpB mutants, the amount of 4FAproc substrate was quantified by analyzing the stained gels using the software ImageJ ([Schneider et al., 2012]). […] Reactions were analyzed by SDS–PAGE and immunoblotting using anti-GFP antibodies ([Rudner and Losick, 2002]). […] The cleavage assays were carried out as described and analyzed by SDS-PAGE and ^35S-autoradiography using Amercham Hyperfilm™ MP films.

In assay [1] the target is T1, isolated PDZ domain of CtpB (Bacillus subtilis, UniProt O35002).
T1 construct: His tag; made in house; host or cells: E. coli BL21(DE3)pLysS
In words: Isothermal titration calorimetry, isolated PDZ domain. It counts as binding. The source says:
(§1) Figure S4 Peptide-Binding Properties of the PDZ Domain, Related to Figure 4 (A) The C termini of B. subtilis proteins predicted to reside in the intermembrane space were synthesized on a cellulose membrane according to the method of inverted peptides. Spotted membranes were probed with either the PDZ domain of CtpB (left) or the ΔPDZ mutant (right). (B) Identified strong binding peptides were further analyzed by systematically substituting residues critical for binding to the PDZ domain of CtpB. (C) ITC analysis testing the interaction of the indicated peptides with the isolated PDZ domain and full-length CtpB (S309A). Raw data (top) and binding isotherm derived from the integrated heat (bottom) are shown. The determined KD dissociation constants are indicated below the binding curves. […] The final model is overlaid with the omit 2Fo-Fc electron density (1.9 Å resolution, contoured at 1.2 σ) calculated without peptide ligand and Arg168.
(§2) Thermodynamic values characterizing the interaction between CtpB and peptide ligands were determined by ITC (MCS-ITC; Microcal). […]
(§3) The interaction between CtpB (wild-type; mutant forms or isolated PDZ domain) and peptide ligands was characterized by ITC measurements (MCS-ITC; Microcal). […] Resulting data were analyzed with the MicroCal ORIGIN software, following the instructions of the manufacturer. […]
A general note: Isothermal titration calorimetry measures the heat released or taken up as one component is titrated into another.

The next assay addresses T2, CtpB R168F (Bacillus subtilis, UniProt O35002, R168F).
T2 construct: with the full-length CtpB variants R168A, R168F and V118Y; His tag; made in house; host or cells: E. coli BL21(DE3)pLysS
In words: Isothermal titration calorimetry, full-length CtpB R168F. Format: binding. As for the experimental part: (§4) Figure S5 Peptide Binding to the PDZ Domain Stabilizes the Active Protease State of CtpB, Related to Figure 5 (A) The interfaces of the PDZ domain with the other domains of CtpB were analyzed to evaluate the prevailing conformation of CtpB in solution. The ribbon representations of CtpBi (left) and CtpBa1 (right) emphasize the PDZ domain that is shown in yellow. Interactions stabilizing the respective domain interfaces (summarized in top panel) are highlighted in orange and the residues forming hydrogen-bonds are listed. […] (B) ITC analysis characterizing the interaction of a peptide having an Ala-Tyr-Ala C terminus with the full-length CtpB variants R168A, R168F and V118Y. Raw data (top) and binding isotherm derived from the integrated heat (bottom) are shown. The determined KD dissociation constants are indicated below the binding curves. (C) Left: a ribbon model of the CtpB V118Y mutant structure, which was crystallized in the same resting conformation as CtpBi. […]
as §2, §3

Another assay deals with T3, full-length CtpB (S309A) (Bacillus subtilis, UniProt O35002, S309A).
T3 construct: the isolated PDZ domain and full-length CtpB (S309A); His tag; made in house; host or cells: E. coli BL21(DE3)pLysS
In words: Isothermal titration calorimetry, full-length CtpB (S309A). It counts as binding.
Description: as §1, §2, §3

The next assay deals with T4, CtpB R168A (Bacillus subtilis, UniProt O35002, R168A).
T4 construct: with the full-length CtpB variants R168A, R168F and V118Y; His tag; made in house; host or cells: E. coli BL21(DE3)pLysS
Nature of the assay: Isothermal titration calorimetry, full-length CtpB R168A. Format: binding. The procedure: as §4, §2, §3

The test system of a further assay is CtpB S309A mutant. Nature of the assay: Cocrystallization of CtpB S309A with peptide. It counts as binding, Bacillus subtilis. As to conditions: S309A/VPA complex, 1.9 Å, 20 mg/ml CtpB incubated with 1 mM peptide for 1 hr at 19°C.
The test system of a further assay is PDZ domain of CtpB. In words: Peptide spot assay. It counts as binding, Bacillus subtilis. As to conditions: inverted peptide array on cellulose membrane; CtpB variants 10 μg/ml, overnight 4°C; anti-polyHis chemiluminescence. The procedure:
Peptide spot libraries were generated by synthesizing the 11 C-terminal residues of 1,849 B. subtilis proteins predicted to reside in the intermembrane space onto a cellulose membrane. Membranes were blocked for 4 hr with blocking buffer (blocking reagent, Sigma-Genosys) and subsequently incubated with CtpB. Bound protein was identified using specific antibodies. Further libraries were generated, where identified peptide sequences were systematically permutated.
Peptide spot libraries were generated by synthesizing the 11 C-terminal residues of 1849 B. subtilis proteins known to reside in the intermembrane space. Peptide libraries were generated by a MultiPep SPOTrobot (INTAVIS Bioanalytical Instruments AG) using an optimized method for generating inverted peptides ([Boisguerin et al., 2007], [Volkmer, 2009]). […] Bound CtpB was detected using a mouse anti-polyHis antibody (Sigma, 1:3,000 in blocking buffer, 2 hr at RT) followed by horseradish-peroxidase conjugated anti-mouse antibody (Calbiochem, 1:2,000 in blocking buffer, 1 hr at RT). […] The signal intensities with background-subtraction were recorded as […] with a LumiImager (Boehringer) and analyzed using the LumiAnalyst software. Secondary libraries for subtitutional analyses were generated by systematically permutating identified peptides and analyzed by the described peptide spot methodology.

The source of these data is publication PMC3808539, “CtpB Assembles a Gated Protease Tunnel Regulating Cell-Cell Signaling during Spore Formation in Bacillus subtilis” (Cell, 2013).

Ends that are not written are not given here.

T1 sequence (O35002 92-182): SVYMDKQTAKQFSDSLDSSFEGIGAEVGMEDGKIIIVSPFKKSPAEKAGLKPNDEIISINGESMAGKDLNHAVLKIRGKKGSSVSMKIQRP
T3 sequence (O35002 24-480 S309A): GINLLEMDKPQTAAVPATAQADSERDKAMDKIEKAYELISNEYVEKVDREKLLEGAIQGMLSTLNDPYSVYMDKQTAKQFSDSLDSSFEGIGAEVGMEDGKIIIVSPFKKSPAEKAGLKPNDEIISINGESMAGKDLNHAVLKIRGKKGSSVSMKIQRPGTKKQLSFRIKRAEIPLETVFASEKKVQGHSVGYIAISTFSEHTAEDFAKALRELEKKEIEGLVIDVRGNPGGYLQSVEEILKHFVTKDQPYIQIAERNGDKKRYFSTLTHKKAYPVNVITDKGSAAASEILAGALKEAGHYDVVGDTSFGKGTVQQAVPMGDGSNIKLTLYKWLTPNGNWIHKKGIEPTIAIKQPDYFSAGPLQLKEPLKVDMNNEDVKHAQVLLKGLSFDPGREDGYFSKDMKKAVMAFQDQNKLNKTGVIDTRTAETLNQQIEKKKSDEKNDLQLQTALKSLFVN
T4 sequence (O35002 24-480 R168A): as the sequence (O35002 24-480 S309A) above, with R145A, A286S counted along it
T2 sequence (O35002 24-480 R168F): as the sequence (O35002 24-480 S309A) above, with R145F, A286S counted along it
Description for CtpB S309A mutant: CtpB crystals were grown at 19°C by the sitting-drop vapor-diffusion method using a 2:1 mixture of protein (20 mg/ml) and reservoir solution. […] Finally, diffraction data of CtpBi/VPA was collected at Deutsches Elektronen-Synchrotron (DESY, beamline P14) using a Pilatus detector (Dectris). Integration and scaling of diffraction data were performed with the programs DENZO, and [sequence]
For all other structures, phases were determined by molecular replacement using the program PHASER ([McCoy et al., 2007]) and the structure of CtpBa1 as search model. In all cases, energy restrained refinement was performed with the programs CNS ([Brünger et al., 1998]) and PHENIX ([Adams et al., 2010]), utilizing bulk solvent and anisotropic B-factor corrections depending on the development of the Rfree index. Refinement was performed in multiple cycles, interrupted for manual model re-building with the program O ([Jones et al., 1991]). Final models were verified with the program MolProbity ([Chen et al., 2010]) and crystal contacts analyzed using the PISA algorithm implemented on the Protein Data Bank Europe website ([Krissinel and Henrick, 2007]).

With Ala-Pro-Ala, the “degradation by CtpB (in words)” value with CtpB (0.3 μM wild-type CtpB, in vitro translated 35S-methionine-labeled 4FAproc constructs) was “rapidly degraded”. Moreover, in the assay on CtpB (4FAproc constructs applied at decreasing concentrations, 0.3 μM CtpB), the “efficiency in stimulating protease function” value is given as “less efficient in stimulating protease function than the Ala-Tyr-Val motif, especially at lower concentrations”.

Broadly, the Kd is the equilibrium constant for the complex coming apart. Read a high Kd as weaker binding. As for FMLLRRKAYA, the Kd in assay [1] was determined as 2.3 µM; on CtpB R168F, 40 µM; on full-length CtpB (S309A), 6.5 µM; on CtpB R168A, 21 µM.

With FMLLRRKAYV, the Kd in assay [1] worked out at 0.9 µM.

As to “H-EMDKPQTAAVPA-OH [oligopeptide having a Val-Pro-Ala C terminus, cocrystallized with S309A]”, the “conformation of S309A cocrystallized with peptide” value is on record as “active conformation” in the assay with CtpB S309A mutant and “peptide binding itself is sufficient to transform the resting protease into the active conformation” in the assay with CtpB S309A mutant (listed as oligopeptide having a Val-Pro-Ala C terminus).

Turning to H-NLVLAGLHSYA-OH, the “binding to PDZ domain in peptide spot analysis” value in the assay with PDZ domain of CtpB was “identified PDZ binder”.
